Data as given in the supplement of paper PMC10307832.

How the values were obtained:
Test in all cases: relative viability (nuclei count vs DMSO), 5 days (fraction); higher = more cells survive
Tipifarnib + Palbociclib = compound: Cn1cncc1[C@@](N)(c1ccc(Cl)cc1)c1ccc2c(c1)c(-c1cccc(Cl)c1)cc(=O)n2C [Tipifarnib] + CC(=O)c1c(C)c2cnc(Nc3ccc(N4CCNCC4)cn3)nc2n(C2CCCC2)c1=O [Palbociclib] (partner 0.5 µM)
Outline: (§1)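 The day after seeding in 1536-well plates, lung cancer cell lines were treated by pin tool with a single drug, or with a fixed anchor-drug dose together with five library-drug doses (not always all listed) in √10 steps. After 5 days, a combined fix-and-stain solution (final 0.05% Triton X-100, 1% formaldehyde, 1 ug/ml Hoechst) was added. Nuclei counted on 4× images gave relative viability as treated counts over vehicle counts, reported as the median of duplicate plates.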

Tipifarnib + Dasatinib = compound: Cn1cncc1[C@@](N)(c1ccc(Cl)cc1)c1ccc2c(c1)c(-c1cccc(Cl)c1)cc(=O)n2C [Tipifarnib] + Cc1nc(Nc2ncc(C(=O)Nc3c(C)cccc3Cl)s2)cc(N2CCN(CCO)CC2)n1 [Dasatinib] (partner 0.075 µM)
Outline: as §1

Tipifarnib + Alpelisib = compound: Cn1cncc1[C@@](N)(c1ccc(Cl)cc1)c1ccc2c(c1)c(-c1cccc(Cl)c1)cc(=O)n2C [Tipifarnib] + Cc1nc(NC(=O)N2CCC[C@H]2C(N)=O)sc1-c1ccnc(C(C)(C)C(F)(F)F)c1 [Alpelisib] (partner 2 µM)
Outline: as §1

Tipifarnib + Bortezomib = compound: Cn1cncc1[C@@](N)(c1ccc(Cl)cc1)c1ccc2c(c1)c(-c1cccc(Cl)c1)cc(=O)n2C [Tipifarnib] + CC(C)C[C@H](NC(=O)[C@H](Cc1ccccc1)NC(=O)c1cnccn1)B(O)O [Bortezomib] (partner 0.002 µM)
Outline: as §1

Cell Line	relative viability (Tipifarnib + Palbociclib; first compound 0.01 µM)	relative viability (Tipifarnib + Palbociclib; first compound 0.03162 µM)	relative viability (Tipifarnib + Palbociclib; first compound 0.1 µM)	relative viability (Tipifarnib + Palbociclib; first compound 0.3162 µM)	relative viability (Tipifarnib + Palbociclib; first compound 1 µM)	relative viability (Tipifarnib + Dasatinib; first compound 0.01 µM)	relative viability (Tipifarnib + Dasatinib; first compound 0.03162 µM)	relative viability (Tipifarnib + Dasatinib; first compound 0.1 µM)	relative viability (Tipifarnib + Dasatinib; first compound 0.3162 µM)	relative viability (Tipifarnib + Dasatinib; first compound 1 µM)	relative viability (Tipifarnib + Alpelisib; first compound 0.01 µM)	relative viability (Tipifarnib + Alpelisib; first compound 0.03162 µM)	relative viability (Tipifarnib + Alpelisib; first compound 0.1 µM)	relative viability (Tipifarnib + Alpelisib; first compound 0.3162 µM)	relative viability (Tipifarnib + Alpelisib; first compound 1 µM)	relative viability (Tipifarnib + Bortezomib; first compound 0.01 µM)	relative viability (Tipifarnib + Bortezomib; first compound 0.03162 µM)	relative viability (Tipifarnib + Bortezomib; first compound 0.1 µM)	relative viability (Tipifarnib + Bortezomib; first compound 0.3162 µM)	relative viability (Tipifarnib + Bortezomib; first compound 1 µM)
NCI-H1437	0.327	0.357	0.336	0.288	0.303	0.446	0.482	0.452	0.416	0.214	1.02	1.02	0.931	0.76	0.688	0.54	0.554	0.403	0.41	0.306
NCI-H2009	0.204	0.206	0.193	0.298	0.152	0.31	0.232	0.217	0.211	0.21	1.18	1.06	0.899	0.689	0.679	1.11	0.775	0.678	0.642	0.373
NCI-H1651	0.502	0.52	0.544	0.502	0.511	0.474	0.209	0.389	0.363	0.196	1.32	1.01	1.03	0.837	0.811	0.94	0.916	1.04	0.842	0.78
LCLC-103H	0.483	0.384	0.491	0.411	0.571	0.47	0.441	0.426	0.345	0.328	0.949	0.964	0.924	0.792	0.768	1.06	0.79	0.973	0.832	0.581
NCI-H1666	0.684	0.676	0.695	0.626	0.663	0.791	0.779	0.785	0.748	0.605	1	0.725	0.851	0.717	0.538	0.801	0.793	0.671	0.614	0.442
NCI-H1734	0.353	0.327	0.323	0.298	0.261	0.465	0.389	0.347	0.274	0.22	0.714	0.598	0.592	0.501	0.418	0.953	0.764	0.724	0.502	0.385
EPLC-272H	0.358	0.265	0.328	0.298	0.263	0.417	0.285	0.296	0.304	0.158	1.06	0.823	0.951	0.613	0.46	0.987	0.195	0.634	0.577	0.311
NCI-H2023	0.297	0.284	0.238	0.211	0.202	0.561	0.427	0.325	0.299	0.217	0.595	0.442	0.391	0.326	0.334	1.27	0.757	0.45	0.453	0.156
BEN	0.587	0.475	0.488	0.455	0.451	0.313	0.294	0.321	0.255	0.254	1.14	0.915	1.06	0.811	0.769	0.81	0.81	0.628	0.652	0.604
COR-L 105	0.403	0.385	0.416	0.408	0.365	0.32	0.355	0.341	0.327	0.255	1.12	0.891	0.731	0.46	0.649	0.869	0.591	0.706	0.444	0.403
ABC-1	0.733	0.689	0.694	0.639	0.604	0.608		0.567	0.483	0.473	1.01		0.869	0.721	0.822	0.31		0.212	0.253	0.291
HCC-15	0.694	0.653	0.566	0.417	0.405	0.627	0.556	0.444	0.377	0.168	0.827	0.646	0.584	0.451	0.367	0.921	0.746	0.868	0.613	0.196
PC-3 [JPC-3]	0.458	0.553	0.642	0.497	0.495	1.01	0.994	0.99	0.679	0.532	1.04	1	0.816	0.78	0.662	0.873	0.629	0.698	0.609	0.427
NCI-H1993	0.604	0.531	0.431	0.463	0.413	0.596	0.515	0.495	0.527	0.516	0.71	0.679	0.675	0.677	0.671	1.12	0.852	0.955	0.608	0.806
NCI-H1915	0.317	0.318	0.281	0.218	0.241	0.241	0.182	0.201	0.175	0.16	0.817	0.624	0.544	0.48	0.457	0.844	0.466	0.54	0.418	0.286
RERF-LC-KJ	1.22	1.12	0.957	0.813	0.784	0.884	0.778	0.724	0.535	0.574	0.955	0.919	0.592	0.631	0.55	1.1	1.1	0.85	0.694	0.717
